Measurements from patent US8367873B2, “Phenyl-substituted bicyclooctane-1,3-dione derivatives” (Bayer Cropscience AG, priority 2008, dated 2013).

What was measured:
Format in all cases: in vivo
[1] = tested on: monocotylidonous and dicotylidonous weed and crop plants; test: Herbicidal pre-emergence action (other test plants); conditions: pre-emergence method, 80 g/ha, greenhouse, visual assessment vs untreated controls
From the text: (§1) Seeds of monocotylidonous and dicotylidonous weed and crop plants are placed in sandy loam in wood fibre pots and covered with soil. The test compounds, formulated in the form of wettable powders (WP), are then, as an aqueous suspension with a water application rate of 600 l/ha (converted), with 0.2% of wetting agent added, applied to the surface of the covering soil in different amounts.
(§2) After the treatment, the pots are placed in a greenhouse and kept under good growth conditions for the test plants. The visual assessment of the emergence damage on the test plants is carried out after a trial period of three weeks by comparison with the untreated controls (herbicidal effect in percent: 100% effect=the plants have died, 0% effect=like control plants).

Lolium multiflorum [2] = test: Herbicidal pre-emergence action; conditions: pre-emergence method, 80 g/ha, greenhouse, visual assessment vs untreated controls
From the text: as §1, §2

Echinocloa crus-galli [3] = test: Herbicidal pre-emergence action; conditions: pre-emergence method, 80 g/ha, greenhouse, visual assessment vs untreated controls
From the text: as §1, §2

Alopecurus myosuroides [4] = test: Herbicidal pre-emergence action; conditions: pre-emergence method, 80 g/ha, greenhouse, visual assessment vs untreated controls
From the text: as §1, §2

Setaria viridis [5] = test: Herbicidal pre-emergence action; conditions: pre-emergence method, 80 g/ha, greenhouse, visual assessment vs untreated controls
From the text: as §1, §2

[6] = tested on: monocotylidonous and dicotylidonous weed and crop plants; test: Herbicidal post-emergence action (other test plants); conditions: post-emergence method, 80 g/ha
In short: (§3)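 Greenhouse-grown weeds were treated post-emergence at the one-leaf stage, two to three weeks after sowing in sandy loam. Compounds formulated as WP were sprayed at various rates in 600 l/ha water with 0.2% wetting agent. Damage was scored visually after about three weeks versus untreated controls (0% = like control, 100% = dead).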

Lolium multiflorum [7] = test: Herbicidal post-emergence action; conditions: post-emergence method, 80 g/ha
In short: as §3

Echinocloa crus-galli [8] = test: Herbicidal post-emergence action; conditions: post-emergence method, 80 g/ha
In short: as §3

Alopecurus myosuroides [9] = test: Herbicidal post-emergence action; conditions: post-emergence method, 80 g/ha
In short: as §3

Setaria viridis [10] = test: Herbicidal post-emergence action; conditions: post-emergence method, 80 g/ha
In short: as §3

Row | SMILES | herbicidal effect AVEFA [1] [%] | herbicidal effect LOLMU (Lolium multiflorum [2]) [%] | herbicidal effect ECHCG (Echinocloa crus-galli [3]) [%] | herbicidal effect ALOMY (Alopecurus myosuroides [4]) [%] | herbicidal effect SETVI (Setaria viridis [5]) [%] | herbicidal effect against AVEFA (Avena fatua) [6] [%] | herbicidal effect against LOLMU (Lolium multiflorum) (Lolium multiflorum [7]) [%] | herbicidal effect against ECHCG (Echinochloa crus-galli) (Echinocloa crus-galli [8]) [%] | herbicidal effect against ALOMY (Alopecurus myosuroides) (Alopecurus myosuroides [9]) [%] | herbicidal effect against SETVI (Setaria viridis) (Setaria viridis [10]) [%]
1 | C=C1CC2C(=O)C(c3c(C)cc(C)cc3C)=C(OC(=O)OC)C2C1 (racemic) [I-c-46] | 50 | 70 | 80 | 80 | 80 | 0 | 90 | 80 | 40 | 90
2 | CCOC(=O)OC1=C(c2c(C)cc(C)cc2C)C(=O)C2CC3(CC12)OCCCCO3 (racemic) [I-c-50] | 0 | 100 | 0 | 30 | 0 | 0 | 100 | 80 | 60 | 80
3 | CCOC(=O)OC1=C(c2c(C)cc(C)cc2C)C(=O)C2CC3(CC12)OCC=CCO3 (racemic) [I-c-51] | 60 | 90 | 30 | 100 | 90 | 40 | 100 | 100 | 100 | 100
4 | COC(=O)OC1=C(c2c(C)cc(C)cc2C)C(=O)C2CC3(CC12)OCC=CCO3 (racemic) [I-c-52] | 70 | 100 | 50 | 60 | 70 | 80 | 100 | 90 | 100 | 100
5 | C=C1CC2C(=O)C(c3c(C)cc(C)cc3OC)=C(OC(=O)OCC)C2C1 (racemic) [I-c-61] | 60 | 50 | 90 | 70 | 90 | 0 | 70 | 90 | 40 | 90
6 | CCOC(=O)OC1=C(c2c(C)cc(C)cc2OC)C(=O)C2CC3(CC12)OCCCO3 (racemic) [I-c-63] | 70 | 100 | 50 | 80 | 50 | 100 | 100 | 100 | 100 | 100
7 | CCOC(=O)OC1=C(c2c(C)cc(C)cc2OC)C(=O)C2CC3(CC12)OCCO3 (racemic) [I-c-64] | 70 | 100 | 50 | 60 | 70 | 80 | 100 | 100 | 80 | 100
8 | CCOC(=O)OC1=C(c2c(C)cc(C)cc2OC)C(=O)C2CC3(CC12)OCC=CCO3 (racemic) [I-c-65] | 60 | 100 | 80 | 100 | 90 | 100 | 100 | 100 | 100 | 100
9 | CCOC(=O)OC1=C(c2c(C)cc(C)cc2OC)C(=O)C2CC3(CC12)OCCCCO3 (racemic) [I-c-66] | 70 | 100 | 100 | 100 | 60 | 100 | 100 | 100 | 100 | 100
